{
  "source": "ChEMBL document CHEMBL5380860",
  "about": "“Design, Synthesis, and Antitumor Activity of Potent and Selective EGFR L858R/T790M Inhibitors and Identification of a Combination Therapy to Overcome Acquired Resistance in Models of Non-small-cell Lung Cancer” (J Med Chem, 2023)",
  "key": {"[1]": {"assay": "Cmax in Sprague-Dawley rat at 1 mg/kg, iv by LC-MS analysis", "assay_type": "ADME, organism-based", "set-up": "dose 1 mg/kg, route iv", "settings": "in vivo"}, "NCI-H1975 [2]": {"tested_on": "NCI-H1975", "assay": "Antiproliferative activity against N-(3-((6-Fluoro-2-((4-(4-methylpiperazin-1-yl)phenyl)amino)quinazolin-4-yl)amino)phenyl)acrylamide-resistant human NCI-H1975 cells assessed as reduction in cell viability at compound:Bosutinib concentration ratio of 3:1 to 1:3 measured after 72 hrs in presence of ACK1 inhibitor, Bosutinib by MTT assay", "assay_type": "functional, cell-based"}, "Mus musculus": {"tested_on": "Mus musculus", "assay": "In vivo inhibition of EGFR L858R/T790M mutant in ip dosed NCI-H1975 cells xenografted BALB/c mouse assessed as inhibition of AKT phosphorylation at Ser473 residue in tumor by immunoblot analysis", "assay_type": "functional, organism-based", "settings": "dose 5-20 mg/kg/day"}, "NCI-H1975 [3]": {"tested_on": "NCI-H1975", "assay": "Induction of apoptosis in human NCI-H1975 cells assessed as increase in caspase-3/7 activity at 0.1 to 10 uM incubated for 24 hrs by Caspase-Glo reagent based luminescence analysis", "assay_type": "functional, cell-based", "settings": "dose 0.1-10 µM"}, "[4]": {"assay": "(§1) Toxicity in BALB/c mouse xenografted with N-(3-((6-Fluoro-2-((4-(4-methylpiperazin-1-yl)phenyl)amino)quinazolin-4-yl)amino)phenyl)acrylamide-resistant human NCI-H1975 cells assessed as changes in heart morphological changes at 20 mg/kg/day, ip in presence of ACK1 inhibitor, dasatinib by hematoxylin-eosin staining based analysis", "assay_type": "organism-based", "settings": "in vivo"}, "[5]": {"tested_on": "Epidermal growth factor receptor (Homo sapiens), P00533 [UNDEFINED MUTATION]", "sequence (P00533 whole entry, looked up, stated change not applied)": "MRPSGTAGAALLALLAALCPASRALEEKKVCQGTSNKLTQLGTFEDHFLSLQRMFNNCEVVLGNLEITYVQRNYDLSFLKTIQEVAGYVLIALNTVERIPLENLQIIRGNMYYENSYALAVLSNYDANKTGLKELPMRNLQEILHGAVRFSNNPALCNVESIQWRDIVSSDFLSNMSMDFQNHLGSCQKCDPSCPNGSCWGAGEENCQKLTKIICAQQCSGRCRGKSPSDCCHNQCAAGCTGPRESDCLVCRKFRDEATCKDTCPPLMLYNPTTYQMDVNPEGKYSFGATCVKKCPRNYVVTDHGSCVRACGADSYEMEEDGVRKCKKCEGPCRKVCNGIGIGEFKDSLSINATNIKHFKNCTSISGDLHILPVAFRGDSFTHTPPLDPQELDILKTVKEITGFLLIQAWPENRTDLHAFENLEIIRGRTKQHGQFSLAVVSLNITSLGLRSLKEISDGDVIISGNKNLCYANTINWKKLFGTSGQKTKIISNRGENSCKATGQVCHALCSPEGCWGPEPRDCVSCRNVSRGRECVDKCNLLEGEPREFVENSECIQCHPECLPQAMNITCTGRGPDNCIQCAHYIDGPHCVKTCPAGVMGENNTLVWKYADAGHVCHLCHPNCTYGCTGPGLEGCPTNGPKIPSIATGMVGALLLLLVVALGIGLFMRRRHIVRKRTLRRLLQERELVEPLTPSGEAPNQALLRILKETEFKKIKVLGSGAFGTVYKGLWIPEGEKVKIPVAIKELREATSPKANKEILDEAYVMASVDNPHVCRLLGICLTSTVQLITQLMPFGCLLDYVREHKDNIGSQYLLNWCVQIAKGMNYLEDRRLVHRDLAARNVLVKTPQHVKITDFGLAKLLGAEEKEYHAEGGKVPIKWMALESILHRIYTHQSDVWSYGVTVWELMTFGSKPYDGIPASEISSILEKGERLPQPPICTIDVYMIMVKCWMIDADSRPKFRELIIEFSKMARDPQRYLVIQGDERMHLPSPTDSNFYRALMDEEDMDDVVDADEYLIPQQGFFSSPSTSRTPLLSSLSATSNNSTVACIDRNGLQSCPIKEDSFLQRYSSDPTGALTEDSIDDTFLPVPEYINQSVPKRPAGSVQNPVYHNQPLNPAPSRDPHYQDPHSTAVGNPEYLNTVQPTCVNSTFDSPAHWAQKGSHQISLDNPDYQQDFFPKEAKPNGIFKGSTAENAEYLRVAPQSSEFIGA", "assay": "Inhibition of EGFR exon del19 mutant in human HCC827 cells assessed as inhibition of EGF-induced EGFR phosphorylation at Tyr1068 residue at 1 uM pretreated with compound for 4 hrs followed by incubation with EGF for 10 mins by western blot analysis", "assay_type": "cell-based", "settings": "time 250.0 min"}, "[6]": {"molecular_target": "T1, Epidermal growth factor receptor (Homo sapiens, UniProt P00533)", "T1 sequence (P00533 whole entry)": "as the sequence (P00533 whole entry, looked up, stated change not applied) above", "assay": "Inhibition of wild type EGFR in human A549 cells assessed as inhibition of EGF-induced Akt phosphorylation at Ser473 residue at 10 uM pretreated with compound for 4 hrs followed by incubation with EGF for 10 mins by western blot analysis", "assay_type": "toxicity, cell-based", "settings": "a549, 4.167 h, time 250 min"}, "A-431": {"tested_on": "A-431", "assay": "Induction of apoptosis in human A-431 cells assessed as induction of PARP cleavage at 0.1 to 10 uM pretreated with compound for 4 hrs followed by incubation with EGF for 10 mins by western blot analysis", "assay_type": "toxicity, cell-based", "settings": "a-431, 4.167 h, dose 0.1-10 µM, time 250 min"}, "[7]": {"molecular_target": "T1, Epidermal growth factor receptor", "assay": "Inhibition of wild type EGFR in human A-431 cells assessed as inhibition of EGF-induced ERK1/2 phosphorylation at 0.1 to 10 uM pretreated with compound for 4 hrs followed by incubation with EGF for 10 mins by western blot analysis", "assay_type": "toxicity, cell-based", "settings": "a-431, 4.167 h, dose 0.1-10 µM, time 250 min"}, "[8]": {"assay": "Toxicity in BALB/c mouse xenografted with human NCI-H1975 cells assessed as change in liver morphological changes at 5 to 20 mg/kg/day, ip by hematoxylin-eosin staining based analysis", "assay_type": "organism-based", "settings": "in vivo, dose 5-20 mg/kg/day"}, "[9]": {"molecular_target": "STE20-like serine/threonine-protein kinase (Homo sapiens, UniProt Q9H2G2)", "sequence (Q9H2G2 whole entry, the tested form may be a part)": "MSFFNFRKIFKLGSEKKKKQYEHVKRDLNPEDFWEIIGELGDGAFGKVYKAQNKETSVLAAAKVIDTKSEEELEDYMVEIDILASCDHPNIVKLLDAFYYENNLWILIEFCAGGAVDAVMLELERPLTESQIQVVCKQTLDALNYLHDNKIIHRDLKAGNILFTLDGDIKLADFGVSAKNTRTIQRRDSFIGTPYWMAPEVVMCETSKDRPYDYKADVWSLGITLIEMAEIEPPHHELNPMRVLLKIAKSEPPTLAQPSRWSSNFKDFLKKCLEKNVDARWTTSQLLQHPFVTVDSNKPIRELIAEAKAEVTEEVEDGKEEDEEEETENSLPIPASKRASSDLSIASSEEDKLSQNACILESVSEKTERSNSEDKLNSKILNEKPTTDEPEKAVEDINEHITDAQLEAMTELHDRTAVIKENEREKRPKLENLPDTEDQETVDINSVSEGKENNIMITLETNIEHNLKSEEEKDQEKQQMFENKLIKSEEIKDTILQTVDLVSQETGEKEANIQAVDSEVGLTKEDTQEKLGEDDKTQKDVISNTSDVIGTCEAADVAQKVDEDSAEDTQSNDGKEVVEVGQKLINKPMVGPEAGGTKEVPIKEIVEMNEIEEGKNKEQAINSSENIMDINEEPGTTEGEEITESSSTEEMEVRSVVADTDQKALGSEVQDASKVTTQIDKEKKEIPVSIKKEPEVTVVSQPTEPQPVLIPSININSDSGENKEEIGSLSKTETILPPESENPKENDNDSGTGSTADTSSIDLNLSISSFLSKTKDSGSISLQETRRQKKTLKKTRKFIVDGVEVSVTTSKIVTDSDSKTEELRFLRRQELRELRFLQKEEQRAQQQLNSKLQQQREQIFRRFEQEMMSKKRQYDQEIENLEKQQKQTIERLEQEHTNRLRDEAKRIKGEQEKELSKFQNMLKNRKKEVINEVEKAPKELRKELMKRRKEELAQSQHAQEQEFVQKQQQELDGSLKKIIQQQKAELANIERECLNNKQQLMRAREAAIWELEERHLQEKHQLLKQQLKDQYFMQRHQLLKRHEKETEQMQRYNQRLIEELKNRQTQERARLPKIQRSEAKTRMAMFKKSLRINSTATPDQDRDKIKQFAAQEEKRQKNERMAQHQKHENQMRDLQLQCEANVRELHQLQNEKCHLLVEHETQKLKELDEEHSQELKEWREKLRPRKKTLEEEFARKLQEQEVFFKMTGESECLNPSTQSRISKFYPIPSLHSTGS", "assay": "Inhibition of human wild type partial length SLK (S14 to A307 residues) expressed in bacterial expression system by KINOMEscan analysis"}, "[10]": {"assay": "as §1, with “spleen” for “heart”", "assay_type": "organism-based", "settings": "in vivo"}, "[11]": {"assay": "Toxicity in BALB/c mouse xenografted with human NCI-H1975 cells assessed as change in spleen morphological changes at 5 to 20 mg/kg/day, ip by hematoxylin-eosin staining based analysis", "assay_type": "organism-based", "settings": "in vivo, dose 5-20 mg/kg/day"}, "NCI-H1975 [12]": {"tested_on": "NCI-H1975", "assay": "Antitumor activity against human NCI-H1975 cells xenografted in BALB/c mouse assessed as inhibition of tumor burden at 20 mg/kg/day, ip", "assay_type": "functional, organism-based"}, "A549": {"tested_on": "A549", "assay": "Induction of apoptosis in human A549 cells assessed as induction of PARP cleavage at 0.1 to 10 uM pretreated with compound for 4 hrs followed by incubation with EGF for 10 mins by western blot analysis", "assay_type": "toxicity, cell-based", "settings": "a549, 4.167 h, dose 0.1-10 µM, time 250 min"}, "[13]": {"molecular_target": "T2, Tyrosine-protein kinase Tec (Homo sapiens) (UniProt P42680)", "T2 sequence (whole entry)": "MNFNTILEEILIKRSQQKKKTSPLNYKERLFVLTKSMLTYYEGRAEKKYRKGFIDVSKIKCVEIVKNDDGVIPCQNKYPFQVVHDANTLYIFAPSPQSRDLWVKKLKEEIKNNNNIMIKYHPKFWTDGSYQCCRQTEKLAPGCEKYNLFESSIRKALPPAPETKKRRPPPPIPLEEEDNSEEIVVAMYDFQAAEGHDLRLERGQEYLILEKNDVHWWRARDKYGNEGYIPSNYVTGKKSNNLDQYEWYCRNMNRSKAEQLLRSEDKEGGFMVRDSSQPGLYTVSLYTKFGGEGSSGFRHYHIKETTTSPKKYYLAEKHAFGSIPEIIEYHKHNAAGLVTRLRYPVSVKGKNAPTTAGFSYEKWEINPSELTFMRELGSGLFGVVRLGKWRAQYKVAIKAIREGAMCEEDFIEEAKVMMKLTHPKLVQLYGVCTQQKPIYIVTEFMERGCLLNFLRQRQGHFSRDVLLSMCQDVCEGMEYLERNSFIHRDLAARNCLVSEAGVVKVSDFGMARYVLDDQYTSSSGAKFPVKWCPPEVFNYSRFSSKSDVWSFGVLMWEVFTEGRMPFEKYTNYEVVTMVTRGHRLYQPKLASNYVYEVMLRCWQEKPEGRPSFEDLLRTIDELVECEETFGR", "assay": "Inhibition of human wild type partial length TEC kinase (L341 to D620 residues) expressed in bacterial expression system assessed as residual activity at 1 uM by KINOMEscan analysis"}, "[14]": {"tested_on": "Epidermal growth factor receptor (Homo sapiens), P00533 [L858R,T790M]", "sequence (P00533 whole entry T790M/L858R, looked up)": "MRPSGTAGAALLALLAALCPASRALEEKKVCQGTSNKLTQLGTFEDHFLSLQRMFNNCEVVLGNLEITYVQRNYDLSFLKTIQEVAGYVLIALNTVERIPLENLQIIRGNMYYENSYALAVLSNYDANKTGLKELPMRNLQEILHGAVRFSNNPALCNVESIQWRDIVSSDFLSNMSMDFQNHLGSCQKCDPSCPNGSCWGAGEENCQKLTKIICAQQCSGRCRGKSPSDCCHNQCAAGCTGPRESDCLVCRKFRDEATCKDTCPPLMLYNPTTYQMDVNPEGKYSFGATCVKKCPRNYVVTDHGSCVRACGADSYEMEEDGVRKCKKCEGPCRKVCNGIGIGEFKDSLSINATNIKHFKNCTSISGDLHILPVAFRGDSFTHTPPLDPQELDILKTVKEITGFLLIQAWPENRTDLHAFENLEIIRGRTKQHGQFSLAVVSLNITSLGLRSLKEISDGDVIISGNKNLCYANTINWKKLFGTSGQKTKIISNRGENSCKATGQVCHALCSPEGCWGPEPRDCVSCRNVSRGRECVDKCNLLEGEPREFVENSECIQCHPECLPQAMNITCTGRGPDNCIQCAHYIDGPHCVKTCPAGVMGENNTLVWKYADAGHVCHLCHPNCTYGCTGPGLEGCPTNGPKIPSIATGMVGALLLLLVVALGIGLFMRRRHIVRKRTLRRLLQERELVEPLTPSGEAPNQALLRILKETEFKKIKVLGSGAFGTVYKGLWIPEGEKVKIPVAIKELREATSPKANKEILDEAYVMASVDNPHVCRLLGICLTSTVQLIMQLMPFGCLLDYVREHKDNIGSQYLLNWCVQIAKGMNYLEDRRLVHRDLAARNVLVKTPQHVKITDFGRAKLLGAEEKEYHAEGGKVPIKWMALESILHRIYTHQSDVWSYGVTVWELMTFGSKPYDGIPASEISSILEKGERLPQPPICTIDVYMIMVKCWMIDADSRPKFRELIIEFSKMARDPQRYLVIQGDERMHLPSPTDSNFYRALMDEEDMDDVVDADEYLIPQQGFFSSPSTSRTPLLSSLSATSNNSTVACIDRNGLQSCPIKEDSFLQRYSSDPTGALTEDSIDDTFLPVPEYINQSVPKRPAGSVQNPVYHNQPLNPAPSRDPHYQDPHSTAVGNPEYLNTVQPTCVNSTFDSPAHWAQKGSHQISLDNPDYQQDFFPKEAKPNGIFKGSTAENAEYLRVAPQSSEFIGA", "assay": "Inhibition of EGFR L858R/T790M mutant in N-(3-((6-Fluoro-2-((4-(4-methylpiperazin-1-yl)phenyl)amino)quinazolin-4-yl)amino)phenyl)acrylamide-resistant human NCI-H1975 cells assessed as inhibition of EGF-induced Akt phosphorylation at Ser473 residue pretreated with compound for 4 hrs followed by incubation with EGF for 10 mins by western blot analysis", "assay_type": "cell-based", "settings": "time 250.0 min"}, "NCI-H1975 [15]": {"tested_on": "NCI-H1975", "assay": "Antitumor activity against N-(3-((6-Fluoro-2-((4-(4-methylpiperazin-1-yl)phenyl)amino)quinazolin-4-yl)amino)phenyl)acrylamide-resistant human NCI-H1975 cells xenografted in BALB/c mouse assessed as […] in TUNEL-positive cells in tumor at 20 mg/kg/day, ip in presence of ACK1 inhibitor, dasatinib by TUNEL assay", "assay_type": "functional, organism-based"}, "[16]": {"assay": "as §1, with “liver” for “heart”", "assay_type": "organism-based", "settings": "in vivo"}, "NCI-H1975 [17]": {"tested_on": "NCI-H1975", "assay": "Inhibition of cell migration in human NCI-H1975 cells incubated for 48 hrs by scratch wound healing assay", "assay_type": "functional, cell-based", "settings": "dose 0.1-10 µM"}},
  "note": "Active and inactive are the calls of the source. The calls are words filed in the database; no cut-off is given here.",
  "data": [
    {"molecule": "C=CC(=O)Nc1cccc(Nc2nc(Nc3ccc(N4CCN(C)CC4)cc3)nc3ccc(F)cc23)c1", "values": [
      {"measurement": "Cmax", "setting": "[1]", "result": 650, "unit": "ng/mL"},
      {"measurement": "Activity", "setting": "NCI-H1975 [2]", "result": "Active"},
      {"measurement": "inhibition", "setting": "Mus musculus", "result": "Dose-Dependent Effect"},
      {"measurement": "Activity", "setting": "NCI-H1975 [3]", "result": "Active"},
      {"measurement": "Activity", "setting": "[4]", "result": "Non-Toxic"},
      {"measurement": "inhibition", "setting": "[5]", "result": "Active"},
      {"measurement": "inhibition (INH)", "setting": "[6]", "result": "Not Active"},
      {"measurement": "Activity", "setting": "A-431", "result": "Non-Toxic"},
      {"measurement": "inhibition (INH)", "setting": "[7]", "result": "Not Active"},
      {"measurement": "Activity", "setting": "[8]", "result": "Non-Toxic"},
      {"measurement": "IC50", "setting": "[9]", "result": 892, "unit": "nM"},
      {"measurement": "Activity", "setting": "[10]", "result": "Non-Toxic"},
      {"measurement": "Activity", "setting": "[11]", "result": "Non-Toxic"},
      {"measurement": "Activity", "setting": "NCI-H1975 [12]", "result": "Active"},
      {"measurement": "Activity", "setting": "A549", "result": "Non-Toxic"},
      {"measurement": "Activity", "setting": "[13]", "result": 14, "unit": "%"},
      {"measurement": "inhibition", "setting": "[14]", "result": "inactive"},
      {"measurement": "Activity", "setting": "NCI-H1975 [15]", "result": "Active"},
      {"measurement": "Activity", "setting": "[16]", "result": "Non-Toxic"},
      {"measurement": "inhibition", "setting": "NCI-H1975 [17]", "result": "Dose-Dependent Effect"}
    ]}
  ]
}
